Reference: paper PMC5986738, “Thiazole Amides, A Novel Class of Algaecides against Freshwater Harmful Algae” (Scientific Reports, 2018)
Converted amounts (≈) assume the structure as drawn.

Experiments:
M. aeruginosa = assay: Algicidal activity (growth inhibition, microplate, absorbance 650 nm) against M. aeruginosa; format: cell-based; conditions: 96-hour IC50, mean ± SD; for IC50: Microcystis aeruginosa, read-out: IC50 value M. aeruginosa
Procedure: (§1) According to the method established by Schrader et al.[42], algicidal activity of alkaloid (1) and its amide analogues (7–32), as well as their hydrochloric salts (7S–27S), was evaluated against three typical […] algae, S. obliqnus, M. aeruginosa, and C. Pyrenoidosa at different concentrations. After three algae species were inoculated, the variation of algae density over 7 days were recorded continuously. […] The wavelength at 650 nm was determined as ideal incident wavelength for the measurement of algae density. Three […] algae S. obliqnus, M. aeruginosa, and C. pyrenoidosa were offered by Freshwater algae culture collection of the institute of Hydrobiology (FACHB-collection). Each culture for three species was maintained separately in continuous, steady-state growth microplates, which were placed in a growth chamber held at 28 ± 1 °C and illuminated continuously under fluorescent lights at a photon flux density of […]. Absorbance values of each wells were measured by a Packard model Spectra Count microplate photometer.
(§2) Alkaloid (1) and its analogues (7–32), as well as their hydrochloric salts (7S–27S), were dissolved separately in DMSO to provide stock solution concentrations. Initially, each stock solution was aseptically pipetted into the bottom of separate wells (20 μL per well) in a 96-well microplate and the final test concentrations for each sample were 0, 0.78, 1.56, 3.12, 6.25, 12.5, and 25 μg/mL. Wells of control samples contained only unialgal culture. The solution of CuSO4 and Diuron at the same concentration were chose as the reference sample. Each experiment was performed at least three times. Through measuring the area values under the individual growth curves, the inhibitory rate (%) for the individual tested concentration was calculated according to the following equation (1):1 Ii=(Ac−Ai)/[…]×100% • Ii: inhibitory rate of biomass growth by toxicant concentration i (%) • Ac: average area under the growth curve by control sample • Ai: average area under the growth curve by test concentration i
(§3) Mean values of 96-hour IC50 were determined for each group of plates, and standard deviation were calculated and reported as the mean ± SD.
(§4) The IC50 values of all compounds against three freshwater algae species were calculated using SPSS v19.0, and the algicidal activities of alkaloid (1) and its amide analogues (7–32), as well as the corresponding hydrochloric salts (7S–27S) are listed in Table 1 and 2, respectively.
Currently, M. aeruginosa appears to be the most harmful algae existing in the freshwater bodies in the developing countries. To investigate growth inhibitory potential of this class of thiazole amides on M. aeruginosa, thiazole amide (10) and its hydrochloric acid salt (10S) were subject to further survey for the optimal inhibition time and concentration (Figs 3 and 4). […] The variation of growth inhibitory ratios of compounds (10) and (10S) against M. aeruginosa at the lowest complete inhibition concentration is illustrated in Fig. 4. As observed, for administration of thiazole amide (10), the growth inhibitory ratios after 96 and 120 hours increase gradually to 79% and 92%, respectively. Under the same experimental conditions, growth inhibitory ratios for the salt (10S) are 82% and 88%, respectively.

C. pyrenoidosa = assay: Algicidal activity (growth inhibition, microplate, absorbance 650 nm) against C. pyrenoidosa; format: cell-based, Chlorella pyrenoidosa; conditions: 96-hour IC50, mean ± SD; for IC50: Auxenochlorella pyrenoidosa, read-out: IC50 value C. pyrenoidosa
Procedure: as §1, §2, §3, §4

S. obliqnus = assay: Algicidal activity (growth inhibition, microplate, absorbance 650 nm) against S. obliqnus; format: cell-based; conditions: for IC50: 96 h, read-out: IC50 value S. obliqnus; for IC50 / IC50 value S. obliqnus: 96-hour IC50, mean ± SD
Procedure: as §1, §2, §3, §4

| Compound | IC50 (M. aeruginosa) | IC50 (C. pyrenoidosa) | melting point | IC50 (S. obliqnus) | algicidal activity, times higher than CuSO4 and Diuron (S. obliqnus; S. obliqnus, from IC50 values) | IC50 value M. aeruginosa (M. aeruginosa) | IC50 value C. pyrenoidosa (C. pyrenoidosa) | IC50 value S. obliqnus (S. obliqnus) |
| --- | --- | --- | --- | --- | --- | --- | --- | --- |
| C[C@H](N)c1nc(C(=O)Nc2ccccc2)cs1 [compound 7] | 11.2 ± 1.12 µg/mL (≈ 45.1 µM) | 4.61 ± 0.45 µg/mL (≈ 18.6 µM) | 117 to 122 °C | – | – | – | – | – |
| C[C@H](N)c1nc(C(=O)Nc2ccc(F)cc2)cs1 [compound 8] | 4.51 ± 0.92 µg/mL (≈ 17 µM) | 3.57 ± 0.37 µg/mL (≈ 13.5 µM) | – | 2.74 ± 0.11 µg/mL (≈ 10.3 µM) | – | – | – | – |
| C[C@H](N)c1nc(C(=O)Nc2ccc(Cl)cc2)cs1 [compound 9] | 2.19 ± 0.09 µg/mL (≈ 7.77 µM) | 1.37 ± 0.12 µg/mL (≈ 4.86 µM) | – | 4.12 ± 0.13 µg/mL (≈ 14.6 µM) | – | – | – | – |
| Cc1ccc(NC(=O)c2csc([C@H](C)N)n2)cc1 [compound 11] | 6.16 ± 1.13 µg/mL (≈ 23.6 µM) | 10.4 ± 1.12 µg/mL (≈ 39.8 µM) | – | 2.66 ± 0.18 µg/mL (≈ 10.2 µM) | – | – | – | – |
| COc1ccc(NC(=O)c2csc([C@H](C)N)n2)cc1 [compound 12] | 2.35 ± 0.91 µg/mL (≈ 8.47 µM) | 17.4 ± 0.92 µg/mL (≈ 62.6 µM) | 126 to 127 °C | – | more than 10 times | – | – | – |
| C[C@H](N)c1nc(C(=O)Nc2ccc(C(F)(F)F)cc2)cs1 [compound 13] | 2.36 ± 0.12 µg/mL (≈ 7.48 µM) | 4.58 ± 0.23 µg/mL (≈ 14.5 µM) | – | 4.35 ± 0.17 µg/mL (≈ 13.8 µM) | – | – | – | – |
| C[C@H](N)c1nc(C(=O)Nc2cccc(Cl)c2)cs1 [compound 14] | 5.19 ± 0.19 µg/mL (≈ 18.4 µM) | 4.37 ± 0.14 µg/mL (≈ 15.5 µM) | 155 to 159 °C | 1.52 ± 0.12 µg/mL (≈ 5.39 µM) | – | – | – | – |
| CC(N)c1nc(C(=O)Nc2cccc(Br)c2)cs1 (centres unmarked) [compound 15] | – | – | – | – | – | 4.79 ± 0.15 µg/mL (≈ 14.7 µM) | 5.77 ± 0.11 µg/mL (≈ 17.7 µM) | – |
| C[C@H](N)c1nc(C(=O)Nc2cccc(C(F)(F)F)c2)cs1 [compound 17] | 12.2 ± 2.13 µg/mL (≈ 38.7 µM) | 10.4 ± 0.99 µg/mL (≈ 33.1 µM) | – | 9.21 ± 1.12 µg/mL (≈ 29.2 µM) | – | – | – | – |
| C[C@H](N)c1nc(C(=O)Nc2ccccc2F)cs1 [compound 18] | 2.55 ± 0.19 µg/mL (≈ 9.61 µM) | 3.41 ± 0.14 µg/mL (≈ 12.9 µM) | – | 3.95 ± 0.92 µg/mL (≈ 14.9 µM) | – | – | – | – |
| C[C@H](N)c1nc(C(=O)Nc2ccccc2Cl)cs1 [compound 19] | 12.2 ± 1.16 µg/mL (≈ 43.4 µM) | 8.16 ± 1.34 µg/mL (≈ 29 µM) | – | – | – | – | – | – |
| C[C@H](N)c1nc(C(=O)Nc2ccccc2Br)cs1 [compound 20] | 8.79 ± 1.23 µg/mL (≈ 26.9 µM) | 2.84 ± 0.93 µg/mL (≈ 8.71 µM) | – | 3.31 ± 0.13 µg/mL (≈ 10.1 µM) | – | – | – | – |
| Cc1ccccc1NC(=O)c1csc([C@H](C)N)n1 [compound 21] | 10.1 ± 1.71 µg/mL (≈ 38.5 µM) | 26.1 ± 3.25 µg/mL (≈ 99.8 µM) | – | – | – | – | – | – |
| C[C@H](N)c1nc(C(=O)Nc2ccc(OC(F)(F)F)cc2)cs1 [compound 23] | 7.2 ± 0.71 µg/mL (≈ 21.7 µM) | 3.8 ± 0.16 µg/mL (≈ 11.5 µM) | – | 5.93 ± 0.11 µg/mL (≈ 17.9 µM) | – | – | – | – |
| C[C@H](N)c1nc(C(=O)Nc2ccc(Cl)c(Cl)c2)cs1 [compound 24] | 9.81 ± 1.13 µg/mL (≈ 31 µM) | 5.11 ± 1.01 µg/mL (≈ 16.2 µM) | – | 4.31 ± 0.21 µg/mL (≈ 13.6 µM) | – | – | – | – |
| Cc1cc(NC(=O)c2csc([C@H](C)N)n2)ccc1F [compound 25] | 6.73 ± 1.21 µg/mL (≈ 24.1 µM) | 5.1 ± 0.13 µg/mL (≈ 18.3 µM) | – | 1.81 ± 0.07 µg/mL (≈ 6.48 µM) | – | – | – | – |
| CCOC(=O)c1ccc(NC(=O)c2csc([C@H](C)N)n2)cc1 [compound 26] | 3.29 ± 0.21 µg/mL (≈ 10.3 µM) | 4.16 ± 0.56 µg/mL (≈ 13 µM) | – | 29.5 ± 1.56 µg/mL (≈ 92.5 µM) | – | – | – | – |
| CC(N)c1nc(C(=O)Nc2ccccn2)cs1 (centres unmarked) [compound 28] | – | – | – | – | – | 3.09 ± 0.15 µg/mL (≈ 12.4 µM) | 14.76 ± 1.26 µg/mL (≈ 59.4 µM) | 3.97 ± 0.17 µg/mL (≈ 16 µM) |
| C[C@H](N)c1nc(C(=O)NC(C)(C)C)cs1 [compound 29] | 5.31 ± 0.45 µg/mL (≈ 23.4 µM) | 3.46 ± 0.67 µg/mL (≈ 15.2 µM) | – | 6.23 ± 0.98 µg/mL (≈ 27.4 µM) | – | – | – | – |
| C[C@H](N)c1nc(C(=O)NCCc2ccccc2)cs1 [compound 31] | 57.5 ± 6.26 µg/mL (≈ 209 µM) | 2.84 ± 0.56 µg/mL (≈ 10.3 µM) | – | 5.98 ± 0.49 µg/mL (≈ 21.7 µM) | – | – | – | – |
| N-(2-(1H-indol-3-yl)ethyl)-2-acetylthiazole-4-carboxamide [Alkaloid (1)] | – | – | – | – | – | 114.60 ± 3.35 µg/mL | 381.57 ± 5.16 µg/mL | 14.33 ± 1.15 µg/mL |
